Patent US6451341B1, “Time release formulation of vitamins, minerals and other beneficial supplements” (priority 1990, dated 2002)

Experiments:
[1] = test system: skin tumors; assay: Effects of antioxidants on skin tumor promotion (DMBA initiation + TPA promotion), antioxidants applied with TPA; assay type: in vivo, mice (SENCAR); conditions: 30 weeks
Description: In one important aspect of the present invention, the formulation includes at least one antioxidant. The antioxidant is preferably selected from the group consisting of butylated hydroxyanisole, butylated hydroxytoluene and propyl gallate. The inventive formulation may include one, or, more preferably, several of the preferred antioxidants in combination. According to one embodiment, the inventive formulation includes butylated hydroxyanisole (BHA) or butylated hydroxytoluene (BHT), and propyl gallate. BHA, BHT and propyl gallate are all antioxidants used to stabilize cosmetic, pharmaceutical, and food products. It has been reported that these agents protect normal cells against radiation, free radicals, toxic chemicals and chemical carcinogens. […] The SENCAR mouse is a valid testing system for the ability of a compound to inhibit tumor initiation and promotion. A good dose-response relationship exists for 7, 12-dimethylbenzanthracene to initiate skin tumors in these mice and they are sensitive to TPA (12-0-tetradecanoylphorbol-13-acetate) promotion [Slaga(1983) “Multistage Skin Carcinogenesis and Specificity of Inhibitors” in: Modulation and Mediation of Cancer by Vitamins, pp. 10-23.]. Further, the preferred antioxidants of the present invention have been reported to protect against cardiovascular disorders, enhance immune function and increase longevity. The preferred antioxidants of the present invention work synergistically with several vitamins, minerals, amino acids, enzymes, and other antioxidants or free radial scavengers included in the formulation of the present invention as will be described in detail below.

[2] = test system: skin cancer; assay: Mouse skin carcinogenesis system; assay type: in vivo; conditions: given alone
[3] = test system: spontaneous tumors; assay: Effects of antioxidants in the diet on aging and spontaneous tumor formation in mice; assay type: in vivo; conditions: 0.5% in normal laboratory chow; 100 SENCAR mice per group
Description: Table 2 illustrates the effects of certain antioxidant components of the present formulation on all the known spontaneous tumor formations and longevity in mice.

[4] = 0.5 mg applied simultaneously with TPA 2x/wk, 30 female SENCAR mice

| Compound | Tumor Response (% Inhibition) [1, 4] [% Inhibition] | Increase in Lifespan (%) [3] [%] | Spontaneous Tumor Formation (% of Control) [3] | also measured |
| --- | --- | --- | --- | --- |
| CC1=C(/C=C/C(C)=C/C=C/C(C)=C/C=C/C=C(C)/C=C/C=C(C)/C=C/C2=C(C)CCCC2(C)C)C(C)(C)CCC1 [B-carotene, Beta carotene] | 20 |  |  | inhibitory activity in mouse skin carcinogenesis [2]: lack of an inhibitory activity |
| COc1ccc(O)c(C(C)(C)C)c1 [BHA, butylated hydroxyanisole] | 35 | 132 | 46 % of Control |  |
| Cc1cc(C(C)(C)C)c(O)c(C(C)(C)C)c1 [BHT, butylated hydroxytoluene] | 32 | 124 | 56 % of Control |  |
| CCCOC(=O)c1cc(O)c(O)c(O)c1 [Propyl gallate, propyl gallate] | 40 | 127 | 62 % of Control |  |
| [Se] [Selenium] |  |  |  | Tumor Response (% Inhibition) ([1]; 0.004 mg applied simultaneously with TPA 2x/wk): 23 % Inhibition |
| O=C1O[C@H]([C@@H](O)CO)C(O)=C1O [Vitamin C] | 30 |  |  |  |
| Vitamin E |  |  |  | Tumor Response (% Inhibition) ([1]; 0.1 mg applied simultaneously with TPA 2x/wk): 25 % Inhibition |
